Test results as given in patent US20250382344A1, “Soluble GLP1/GIP/NPY2 Receptor Triple Agonists” (Boehringer Ingelheim International GmH, priority 2024, published 2025).
Like-named read-outs stand apart in the source and are kept apart here. Where a SMILES comes first, the peptide text is derived from it. Side-chain parts run from the residue outwards. [ ]: non-standard residue; d: D form. The star is where a group is joined. ξ: configuration not given here. C18 diacid = O=C(O)CCCCCCCCCCCCCCCCC(=O)*; αMeF = C[C@](N)(Cc1ccccc1)C(=O)O; ξIva = CCC(C)(N)C(=O)O; Aib = CC(C)(N)C(=O)O

Test: Solubility in 0.1 M phosphate buffer at pH 7
Format: physicochemical
Details: 0.1 M phosphate buffer at pH 7, 10 mg/mL final peptide concentration, shaking 2 hours at room temperature, peptides as TFA-salts, measured sample pH 6.5-7.0

## CC[C@H](C)[C@H](NC(=O)[C@H](CC(C)C)NC(=O)[C@H](Cc1c[nH]cn1)NC(=O)[C@H](CCCNC(=N)N)NC(=O)[C@@H](NC(=O)[C@H](Cc1ccccc1)NC(=O)[C@H](C)NC(=O)C(C)(C)NC(=O)[C@H](CCC(N)=O)NC(=O)[C@H](C)NC(=O)[C@H](CCC(N)=O)NC(=O)[C@H](CCCCN)NC(=O)[C@H](CCC(=O)O)NC(=O)[C@H](CC(C)C)NC(=O)C(C)(C)NC(=O)[C@@H](NC(=O)[C@H](CO)NC(=O)[C@H](Cc1ccc(O)cc1)NC(=O)[C@H](CC(=O)O)NC(=O)[C@H](CO)NC(=O)[C@@H](NC(=O)[C@H](Cc1ccccc1)NC(=O)[C@@H](NC(=O)CNC(=O)[C@H](CCC(=O)O)NC(=O)C(C)(C)NC(=O)[C@@H](N)Cc1ccc(O)cc1)[C@@H](C)O)[C@@H](C)O)[C@@H](C)CC)C(C)C)C(=O)N[C@@H](CC(N)=O)C(=O)N[C@@H](CCCCNC(=O)COCCOCCNC(=O)COCCOCCNC(=O)CC[C@H](NC(=O)CC[C@H](NC(=O)CC[C@H](NC(=O)CC[C@H](NC(=O)CC[C@H](NC(=O)CCCCCCCCCCCCCCCCC(=O)O)C(=O)O)C(=O)O)C(=O)O)C(=O)O)C(=O)O)C(=O)NC(C)(C)C(=O)N[C@H](C(=O)N[C@@H](CCCNC(=N)N)C(=O)N[C@@H](CCC(N)=O)C(=O)N[C@@H](CCCNC(=N)N)C(=O)N[C@@H](Cc1ccc(O)cc1)C(N)=O)[C@@H](C)O [Compound 117, Y-Aib-E-G-T-F-T-S-D-Y-S-I-Aib-L-E-K-Q-A-Q-Aib-A-F-V-R-H-L-I-N-K(1,3)-Aib-T-R-Q-R-Y-NH2.C18DA-gGlu-gGlu-gGlu-gGlu-gGlu-OEG-OEG(1,2)]
read-out: Solubility
  solubility: 4800 µg/mL

## CC[C@H](C)[C@H](NC(=O)[C@H](CO)NC(=O)[C@H](CCCCNC(=O)CNC(=O)CNC(=O)CNC(=O)CNC(=O)CCCCCCCCCCCCCCCCC(=O)O)NC(=O)[C@H](CC(=O)O)NC(=O)[C@H](CO)NC(=O)[C@@H](NC(=O)[C@](C)(Cc1ccccc1)NC(=O)[C@@H](NC(=O)CNC(=O)[C@H](CCC(=O)O)NC(=O)C(C)(C)NC(=O)[C@@H](N)Cc1ccc(O)cc1)[C@@H](C)O)[C@@H](C)O)C(=O)NC(C)(C)C(=O)N[C@@H](CC(C)C)C(=O)N[C@@H](CCC(=O)O)C(=O)N[C@@H](CCCCN)C(=O)N[C@@H](CCC(N)=O)C(=O)N[C@@H](CCCNC(=N)N)C(=O)N[C@@H](CCC(N)=O)C(=O)NC(C)(CC)C(=O)N[C@@H](CCC(=O)O)C(=O)N[C@@H](Cc1ccccc1)C(=O)N[C@H](C(=O)N[C@@H](CCCNC(=N)N)C(=O)N[C@@H](Cc1c[nH]cn1)C(=O)N[C@@H](CC(C)C)C(=O)N[C@@H](CC(C)C)C(=O)N[C@@H](CC(N)=O)C(=O)N[C@@H](CCCCN)C(=O)NC(C)(C)C(=O)N[C@H](C(=O)N[C@@H](CCCNC(=N)N)C(=O)N[C@@H](CCC(N)=O)C(=O)N[C@@H](CCCNC(=N)N)C(=O)N[C@@H](Cc1ccc(O)cc1)C(N)=O)[C@@H](C)O)C(C)C (stereo partly drawn) [Ref. 3, Y-Aib-E-G-T-aMeF-T-S-D-K(1,3)-S-I-Aib-L-E-K-Q-R-Q-Iva-E-F-V-R-H-L-L-N-K-Aib-T-R-Q-R-Y-NH2.C18DA-G-G-G-G(1,2), reference compound] (H-Y[Aib]EGT[αMeF]TSDK([Gly-Gly-Gly-Gly-C18 diacid])SI[Aib]LEKQRQ[ξIva]EFVRHLLNK[Aib]TRQRY-NH2)
  solubility: <1000 µg/mL
  solubility at 2 h: < 1000 µg/mL

## CC[C@H](C)[C@H](NC(=O)[C@H](C)NC(=O)[C@H](Cc1c[nH]cn1)NC(=O)[C@H](CCCNC(=N)N)NC(=O)[C@@H](NC(=O)[C@H](Cc1ccccc1)NC(=O)[C@H](C)NC(=O)C(C)(C)NC(=O)[C@H](CCC(N)=O)NC(=O)[C@H](C)NC(=O)[C@H](CCC(N)=O)NC(=O)[C@H](CCCCN)NC(=O)[C@H](CCC(=O)O)NC(=O)[C@H](CC(C)C)NC(=O)C(C)(C)NC(=O)[C@@H](NC(=O)[C@H](CO)NC(=O)[C@H](Cc1ccc(O)cc1)NC(=O)[C@H](CC(=O)O)NC(=O)[C@H](CO)NC(=O)[C@@H](NC(=O)[C@H](Cc1ccccc1)NC(=O)[C@@H](NC(=O)CNC(=O)[C@H](CCC(=O)O)NC(=O)C(C)(C)NC(=O)[C@@H](N)Cc1ccc(O)cc1)[C@@H](C)O)[C@@H](C)O)[C@@H](C)CC)C(C)C)C(=O)N[C@@H](CC(N)=O)C(=O)N[C@@H](CCCCNC(=O)[C@@H](N)CCCCNC(=O)CC[C@H](NC(=O)CC[C@H](NC(=O)CC[C@H](NC(=O)CC[C@H](NC(=O)CC[C@H](NC(=O)CC[C@H](NC(=O)CCCCCCCCCCCCCCCCC(=O)O)C(=O)O)C(=O)O)C(=O)O)C(=O)O)C(=O)O)C(=O)O)C(=O)NC(C)(C)C(=O)N[C@H](C(=O)N[C@@H](CCCNC(=N)N)C(=O)N[C@@H](CCC(N)=O)C(=O)N[C@@H](CCCNC(=N)N)C(=O)N[C@@H](Cc1ccc(O)cc1)C(N)=O)[C@@H](C)O [Compound 139, Y-Aib-E-G-T-F-T-S-D-Y-S-I-Aib-L-E-K-Q-A-Q-Aib-A-F-V-R-H-A-I-N-K(1,3)-Aib-T-R-Q-R-Y-NH2.C18DA-gGlu-gGlu-gGlu-gGlu-gGlu-gGlu-eLys(1,2)]
  solubility at 2 h: 9000 µg/mL

## CC[C@H](C)[C@H](NC(=O)[C@H](CC(C)C)NC(=O)[C@H](Cc1c[nH]cn1)NC(=O)[C@H](CCCNC(=N)N)NC(=O)[C@@H](NC(=O)[C@H](Cc1ccccc1)NC(=O)[C@H](C)NC(=O)C(C)(C)NC(=O)[C@H](CCC(N)=O)NC(=O)[C@H](C)NC(=O)[C@H](CCC(N)=O)NC(=O)[C@H](CCC(=O)O)NC(=O)[C@H](CC(=O)O)NC(=O)[C@H](CC(C)C)NC(=O)C(C)(C)NC(=O)[C@@H](NC(=O)[C@H](CO)NC(=O)[C@H](Cc1ccc(O)cc1)NC(=O)[C@H](CC(=O)O)NC(=O)[C@H](CO)NC(=O)[C@@H](NC(=O)[C@H](Cc1ccccc1)NC(=O)[C@@H](NC(=O)CNC(=O)[C@H](CCC(=O)O)NC(=O)C(C)(C)NC(=O)[C@@H](N)Cc1ccc(O)cc1)[C@@H](C)O)[C@@H](C)O)[C@@H](C)CC)C(C)C)C(=O)N[C@@H](CC(N)=O)C(=O)N[C@@H](CCCCNC(=O)[C@@H](N)CCCCNC(=O)CC[C@H](NC(=O)CC[C@H](NC(=O)CC[C@H](NC(=O)CC[C@H](NC(=O)CC[C@H](NC(=O)CCCCCCCCCCCCCCCCC(=O)O)C(=O)O)C(=O)O)C(=O)O)C(=O)O)C(=O)O)C(=O)NC(C)(C)C(=O)N[C@H](C(=O)N[C@@H](CCCNC(=N)N)C(=O)N[C@@H](CCC(N)=O)C(=O)N[C@@H](CCCNC(=N)N)C(=O)N[C@@H](Cc1ccc(O)cc1)C(N)=O)[C@@H](C)O [Compound 108, Y-Aib-E-G-T-F-T-S-D-Y-S-I-Aib-L-D-E-Q-A-Q-Aib-A-F-V-R-H-L-I-N-K(1,3)-Aib-T-R-Q-R-Y-NH2.C18DA-gGlu-gGlu-gGlu-gGlu-gGlu-eLys(1,2)]
read-out: Solubility
  solubility: 9200 µg/mL

## CC[C@H](C)[C@H](NC(=O)[C@H](CC(C)C)NC(=O)[C@H](Cc1c[nH]cn1)NC(=O)[C@H](CCCNC(=N)N)NC(=O)[C@@H](NC(=O)[C@H](Cc1ccccc1)NC(=O)[C@H](C)NC(=O)C(C)(C)NC(=O)[C@H](CCC(N)=O)NC(=O)[C@H](C)NC(=O)[C@H](CCC(N)=O)NC(=O)CNC(=O)[C@H](CCC(=O)O)NC(=O)[C@H](CC(C)C)NC(=O)C(C)(C)NC(=O)[C@@H](NC(=O)[C@H](CO)NC(=O)[C@H](Cc1ccc(O)cc1)NC(=O)[C@H](CC(=O)O)NC(=O)[C@H](CO)NC(=O)[C@@H](NC(=O)[C@H](Cc1ccccc1)NC(=O)[C@@H](NC(=O)CNC(=O)[C@H](CCC(=O)O)NC(=O)C(C)(C)NC(=O)[C@@H](N)Cc1ccc(O)cc1)[C@@H](C)O)[C@@H](C)O)[C@@H](C)CC)C(C)C)C(=O)N[C@@H](CC(N)=O)C(=O)N[C@@H](CCCCNC(=O)[C@@H](N)CCCCNC(=O)CC[C@H](NC(=O)CC[C@H](NC(=O)CC[C@H](NC(=O)CC[C@H](NC(=O)CC[C@H](NC(=O)CC[C@H](NC(=O)CCCCCCCCCCCCCCCCC(=O)O)C(=O)O)C(=O)O)C(=O)O)C(=O)O)C(=O)O)C(=O)O)C(=O)NC(C)(C)C(=O)N[C@H](C(=O)N[C@@H](CCCNC(=N)N)C(=O)N[C@@H](CCC(N)=O)C(=O)N[C@@H](CCCNC(=N)N)C(=O)N[C@@H](Cc1ccc(O)cc1)C(N)=O)[C@@H](C)O [Compound 95, Y-Aib-E-G-T-F-T-S-D-Y-S-I-Aib-L-E-G-Q-A-Q-Aib-A-F-V-R-H-L-I-N-K(1,3)-Aib-T-R-Q-R-Y-NH2.C18DA-gGlu-gGlu-gGlu-gGlu-gGlu-gGlu-eLys(1,2)]
  solubility at 2 h: 4400 µg/mL

## CC[C@H](C)[C@H](NC(=O)[C@H](CC(C)C)NC(=O)[C@H](Cc1c[nH]cn1)NC(=O)[C@H](CCCNC(=N)N)NC(=O)[C@@H](NC(=O)[C@H](Cc1ccccc1)NC(=O)[C@H](C)NC(=O)C(C)(C)NC(=O)[C@H](CCC(N)=O)NC(=O)[C@H](CCC(=O)O)NC(=O)[C@H](CCC(N)=O)NC(=O)[C@H](CCCCN)NC(=O)[C@H](CCC(=O)O)NC(=O)[C@H](CC(C)C)NC(=O)C(C)(C)NC(=O)[C@@H](NC(=O)[C@H](CO)NC(=O)[C@H](Cc1ccc(O)cc1)NC(=O)[C@H](CC(=O)O)NC(=O)[C@H](CO)NC(=O)[C@@H](NC(=O)[C@H](Cc1ccccc1)NC(=O)[C@@H](NC(=O)CNC(=O)[C@H](CCC(=O)O)NC(=O)C(C)(C)NC(=O)[C@@H](N)Cc1ccc(O)cc1)[C@@H](C)O)[C@@H](C)O)[C@@H](C)CC)C(C)C)C(=O)N[C@@H](CC(N)=O)C(=O)N[C@@H](CCCCNC(=O)[C@@H](N)CCCCNC(=O)CC[C@H](NC(=O)CC[C@H](NC(=O)CC[C@H](NC(=O)CC[C@H](NC(=O)CC[C@H](NC(=O)CC[C@H](NC(=O)CCCCCCCCCCCCCCCCC(=O)O)C(=O)O)C(=O)O)C(=O)O)C(=O)O)C(=O)O)C(=O)O)C(=O)NC(C)(C)C(=O)N[C@H](C(=O)N[C@@H](CCCNC(=N)N)C(=O)N[C@@H](CCC(N)=O)C(=O)N[C@@H](CCCNC(=N)N)C(=O)N[C@@H](Cc1ccc(O)cc1)C(N)=O)[C@@H](C)O [Compound 36, Y-Aib-E-G-T-F-T-S-D-Y-S-I-Aib-L-E-K-Q-E-Q-Aib-A-F-V-R-H-L-I-N-K(1,3)-Aib-T-R-Q-R-Y-NH2.C18DA-gGlu-gGlu-gGlu-gGlu-gGlu-gGlu-eLys(1,2)]
  solubility at 2 h: 5000 µg/mL
